Biological target: T1, dihydrofolate reductase (Homo sapiens, UniProt P00374)
T1 sequence (P00374 1-187): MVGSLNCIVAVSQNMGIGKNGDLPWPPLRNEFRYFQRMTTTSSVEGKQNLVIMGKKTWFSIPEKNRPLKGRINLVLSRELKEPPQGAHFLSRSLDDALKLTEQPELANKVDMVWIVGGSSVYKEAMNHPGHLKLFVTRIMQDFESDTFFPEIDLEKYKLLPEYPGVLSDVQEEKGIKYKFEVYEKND
Experiment: Dihydrofolate reductase enzyme inhibition assay
Assay type: biochemical
Conditions: for inhibition at 500 µM: read-out: % inhibition (0.5 mM)

`O=[N+]([O-])c1cccc(NC(=S)NN=Cc2ccc(N3CCCC3)cc2)c1` [Compound 5o, N-(3-Nitrophenyl)-2-[4-(pyrrolidin-1-yl)benzylidene]hydrazinecarbothioamide] showed an IC50 of 45.3 ± 0.63 µM and an inhibition at 500 µM of 75.6%.

`S=C(NN=Cc1ccc(N2CCCC2)cc1)NC1CCCCC1` [Compound 5a, N-Cyclohexyl-2-[4-(pyrrolidin-1-yl)benzylidene]hydrazinecarbothioamide] was tested, and the IC50 was 29.1 ± 0.38 µM and the inhibition at 500 µM was 83.6%.

With `Cc1ccc(CNC(=S)NN=Cc2ccc(N3CCCC3)cc2)cc1` [Compound 5r, N-(4-Methylbenzyl)-2-[4-(pyrrolidin-1-yl)benzylidene]hydrazinecarbothioamide] the IC50 was 42.2 ± 0.63 µM and the inhibition at 500 µM was 79.8%.

Work on `S=C(NCCN1CCOCC1)NN=Cc1ccc(N2CCCC2)cc1` [Compound 5k, N-(2-Morpholinoethyl)-2-[4-(pyrrolidin-1-yl)benzylidene]hydrazinecarbothioamide] yielded an IC50 of 40.6 ± 0.59 µM and an inhibition at 500 µM of 76.9%.

For `S=C(NCc1ccc(Cl)cc1)NN=Cc1ccc(N2CCCC2)cc1` [Compound 5i, N-(4-Chlorobenzyl)-2-[4-(pyrrolidin-1-yl)benzylidene]hydrazinecarbothioamide], the IC50 was 27.5 ± 0.5 µM and the inhibition at 500 µM was 83.9%.

Compound `Fc1ccccc1NC(=S)NN=Cc1ccc(N2CCCC2)cc1` [Compound 5q, N-(2-Fluorophenyl)-2-[4-(pyrrolidin-1-yl)benzylidene]hydrazinecarbothioamide] has an IC50 of 35.3 ± 0.59 µM and an inhibition at 500 µM of 77.3%.

`S=C(NN=Cc1ccc(N2CCCC2)cc1)Nc1cccc(Br)c1` [Compound 5n, N-(3-Bromophenyl)-2-[4-(pyrrolidin-1-yl)benzylidene]hydrazinecarbothioamide] was tested, and the IC50 was 22.1 ± 0.37 µM and the inhibition at 500 µM was 88.2%.

In the case of `S=C(NN=Cc1ccc(N2CCCC2)cc1)Nc1ccc(Br)cc1` [Compound 5m, N-(4-Bromophenyl)-2-[4-(pyrrolidin-1-yl)benzylidene]hydrazinecarbothioamide], the IC50 is reported as 16.3 ± 0.26 µM and the inhibition at 500 µM is reported as 90.8%.

Compound `S=C(NCc1ccccc1)NN=Cc1ccc(N2CCCC2)cc1` [Compound 5p, N-Benzyl-2-[4-(pyrrolidin-1-yl)benzylidene]hydrazinecarbothioamide] has an IC50 of 48.2 ± 0.6 µM and an inhibition at 500 µM of 74.6%.

`COc1ccc(NC(=S)NN=Cc2ccc(N3CCCC3)cc2)cc1` [Compound 5d, N-(4-Methoxyphenyl)-2-[4-(pyrrolidin-1-yl)benzylidene]hydrazinecarbothioamide] showed an IC50 of 12.4 ± 0.48 µM and an inhibition at 500 µM of 91.1%.

Compound `S=C(NN=Cc1ccc(N2CCCC2)cc1)Nc1ccccc1` [Compound 5f, N-Phenyl-2-[4-(pyrrolidin-1-yl)benzylidene]hydrazinecarbothioamide] has an IC50 of 21.2 ± 0.44 µM and an inhibition at 500 µM of 86.2%.

With `Cc1ccc(NC(=S)NN=Cc2ccc(N3CCCC3)cc2)cc1` [Compound 5g, 2-[4-(Pyrrolidin-1-yl)benzylidene]-N-(p-tolyl)hydrazinecarbothioamide] the IC50 was 14.4 ± 0.29 µM and the inhibition at 500 µM was 89.5%.

`Fc1ccc(NC(=S)NN=Cc2ccc(N3CCCC3)cc2)cc1` [Compound 5b, N-(4-Fluorophenyl)-2-[4-(pyrrolidin-1-yl)benzylidene]hydrazinecarbothioamide] was tested, and the IC50 was 33.1 ± 0.71 µM and the inhibition at 500 µM was 80.6%.

For `COc1cccc(NC(=S)NN=Cc2ccc(N3CCCC3)cc2)c1` [Compound 5h, N-(3-Methoxyphenyl)-2-[4-(pyrrolidin-1-yl)benzylidene]hydrazinecarbothioamide], the IC50 was 23.1 ± 0.35 µM and the inhibition at 500 µM was 86.7%.

`Cc1cccc(C)c1NC(=S)NN=Cc1ccc(N2CCCC2)cc1` [Compound 5e, N-(2,6-Dimethylphenyl)-2-[4-(pyrrolidin-1-yl)benzylidene]hydrazinecarbothioamide] gave an IC50 of 15.3 ± 0.26 µM and an inhibition at 500 µM of 90.2%.

`O=[N+]([O-])c1ccc(NC(=S)NN=Cc2ccc(N3CCCC3)cc2)cc1` [Compound 5j, N-(4-Nitrophenyl)-2-[4-(pyrrolidin-1-yl)benzylidene]hydrazinecarbothioamide] was tested, and the IC50 was 54.1 ± 0.72 µM and the inhibition at 500 µM was 74.1%.

Compound `S=C(NN=Cc1ccc(N2CCCC2)cc1)Nc1cccc(Cl)c1Cl` [Compound 5c, N-(2,3-Dichlorophenyl)-2-[4-(pyrrolidin-1-yl)benzylidene]hydrazinecarbothioamide] has an IC50 of 36.2 ± 0.69 µM and an inhibition at 500 µM of 81.3%.

`S=C(NCCc1ccccc1)NN=Cc1ccc(N2CCCC2)cc1` [Compound 5l, N-Phenethyl-2-[4-(pyrrolidin-1-yl)benzylidene]hydrazinecarbothioamide] gave an IC50 of 12.4 ± 0.25 µM and an inhibition at 500 µM of 91.5%.
